This is an account of results in the NIST ThermoML archive (doi:10.1016/j.fluid.2014.09.007).

Data set [1] is described as follows: Molar enthalpy of transition or fusion. The following applies: Crystal; DSC.
For data set [2] the following is noted: Crystal.
A short description of data set [3]: Solid-liquid equilibrium temperature. The following applies: Crystal, visual observation.

Numbers after ± are expanded uncertainties.

With `CCCCCCCCCCCCCCCC(=O)OCC` [ethyl hexadecanoate], the “Molar enthalpy of transition or fusion” value in data set [1] amounted to 13.3 ± 0.359 kcal/mol. The Normal melting temperature in data set [2] (DTA) was 24.2 ± 0.5 °C; in data set [2] (visual observation), 24.5 ± 0.5 °C. In addition, the Solid-liquid equilibrium temperature in data set [3] (100 kPa) was determined as 297.6 ± 0.4 K; in data set [3] (20000 kPa) it was 302 ± 0.5 K; in data set [3] (40000 kPa), 306.4 ± 0.5 K; in data set [3] (60000 kPa), 310.3 ± 0.5 K; in data set [3] (80000 kPa), 314.3 ± 0.5 K.
For `CCCCCCCCCCCC(=O)OCC` [ethyl dodecanoate], in data set [1], the “Molar enthalpy of transition or fusion” value stood at 9.18 ± 0.311 kcal/mol. The Normal melting temperature in data set [2] (DTA) is -0.9 ± 0.5 °C; in data set [2] (visual observation) it was -0.8 ± 0.5 °C. Further, the Solid-liquid equilibrium temperature was found to be 272.3 ± 0.4 K in data set [3] (100 kPa); 276.4 ± 0.5 K in data set [3] (20000 kPa); 280.3 ± 0.5 K in data set [3] (40000 kPa); 284 ± 0.5 K in data set [3] (60000 kPa); 287.4 ± 0.5 K in data set [3] (80000 kPa).
For `CCCCCCCCCCCCCC(=O)OCC` [ethyl tetradecanoate], the “Molar enthalpy of transition or fusion” value in data set [1] is 11.3 ± 0.335 kcal/mol. Also, the Normal melting temperature in data set [2] (DTA) amounted to 13.2 ± 0.5 °C; in data set [2] (visual observation), 12.7 ± 0.5 °C. For the same compound, the Solid-liquid equilibrium temperature is recorded as 285.8 ± 0.4 K in data set [3] (100 kPa); 289.9 ± 0.5 K in data set [3] (20000 kPa); 294.1 ± 0.5 K in data set [3] (40000 kPa); 298 ± 0.5 K in data set [3] (60000 kPa); 301.9 ± 0.5 K in data set [3] (80000 kPa).
